Assay results as given in US20210353614A1, “COMPOUNDS AND USES THEREOF TO TREAT TUMORS IN A SUBJECT” (Merck Patent GMBH, priority 2018, published 2021).
Like-named read-outs stand apart in the source and are kept apart here.

Tests used:
[1] = tested on: human colon cancer xenograft model SW620; assay: CRC xenograft model, ATM inhibitors in combination with irinotecan; format: in vivo, mice
Procedure: Animals were treated with three 1-week cycles of a combination of irinotecan and the respective ATM inhibitors, or the respective monotherapy control arms. One cycle consisted of one irinotecan application (ip) at a dose of 50 mg/kg, followed by 100, and 50 mg/kg of ATMi 1, or 10 and 25 mg/kg of ATMi 2 (po) 24 h later and for four subsequent days.

colon cancer cell line [2] = assay: GI50 of SN38 and of the combination with ATMi2; format: cell-based
colon cancer cell line [3] = assay: Immunogenic cell death induction (calreticulin, HSP70, HSP90 surface expression, ATP and HMGB1 release, caspase-3/7); format: cell-based
Procedure: […]. The inhibitor for ATM and SN38 were tested as single agents and in combination at the concentrations of the GI50 of the combination. The GI50 of SN38 was included as a positive control for induction of immunogenic cell death. […] Cell surface expression of calreticulin, HSP70 and HSP90 was analysed by Flow Cytometry, ATP secretion by ATPlite assay Perkin Elmer, HMGB1 release by HMGB1 Elisa (IBL International) and apoptosis by Caspase-Glo 3/7 Assay Systems (measures caspase-3/7 activities).
Analyses of DAMPs (Calreticulin, HSP70, HSP90, HMGB1 and ATP) were carried out whithin the same sample. Cells were treated 24 hours after seeding and analyses performed 72 hours post-treatment. Cells were used for FACS analyses and supenatants for ATP and HMGB1 measurements. Caspase-Glo 3/7 was carried out in parallel following the same treatment schedule.
For FACS analyses, an unstained sample was used as a gating control and an isotype sample to measure unspecific antibody binding. % PE positive cells represent cells with cell surface expression of the tested marker (all markers were conjugated with PE and tested independently). ATP secretion, HMGB1 release and apoptosis were carried out accordingly to the protocols provided by the commercial supplier (data represented as the average of two independent biological repeats).

[4] = combination ATMi 2 25 mg/kg + irinotecan, d28
[5] = combination ATMi 2 25 mg/kg po + irinotecan 50 mg/kg ip, day 21

COc1cc2ncc3c(c2cc1-c1cn(C)nc1C)n(-c1c(F)cncc1OC)c(=O)n3C [ATMi 2, 8-(1,3-Dimethyl-1H-pyrazol-4-yl)-1-(3-fluoro-5-methoxy-pyridin-4-yl)-7-methoxy-3-methyl-1,3-dihydro-imidazo[4,5-c]quinolin-2-one]
partial responses (tumor volume >30% decrease) [1, 4]: 2/10 | stable diseases (tumor volume change between 30% decrease and 73% increase) [1, 4]: 3/10 | animals progression free (<73% increase in tumor volume compared to starting volume) ([1]; combination ATMi 2 25 mg/kg + irinotecan, d28, one week after stop of treatment): 5/10 | decrease of mean tumor volume compared to starting volume [1, 5]: ~87% | mean tumor volume [1, 5]: 53 mm^3 | GI50 (colon cancer cell line [2]; in combination with 0.4 nM SN38, read-out: GI50 of the combination (ATMi2 concentration)): 250 nM | induction of immunogenic cell death (colon cancer cell line [3]; ATMi2 single agent at 250 nM, 72 hours post-treatment): not | induction of immunogenic cell death (colon cancer cell line [3]; combination 250 nM ATMi2 + 0.4 nM SN38, 72 hours post-treatment): clear induction of immunogenic cell death

CCc1c2c(nc3ccc(O)cc13)-c1cc3c(c(=O)n1C2)COC(=O)[C@]3(O)CC [SN38, reference compound]
GI50 (colon cancer cell line [2]; SN38 as single agent, read-out: GI50): 2 nM | GI50 (colon cancer cell line [2]; in combination with 250 nM ATMi2, read-out: GI50 of the combination (SN38 concentration)): 0.4 nM | induction of immunogenic cell death (colon cancer cell line [3]; SN38 at its GI50 (2 nM), 72 hours post-treatment): clear induction of immunogenic cell death | induction of immunogenic cell death (colon cancer cell line [3]; SN38 single agent at 0.4 nM, 72 hours post-treatment): not

CCc1c2c(nc3ccc(OC(=O)N4CCC(N5CCCCC5)CC4)cc13)-c1cc3c(c(=O)n1C2)COC(=O)[C@]3(O)CC [irinotecan, reference compound]
disease status ([1]; irinotecan arm, day 28): all animals showed progressive disease
